From US20130204033A1, “ANTIPROLIFERATIVE COMPOUNDS, CONJUGATES THEREOF, METHODS THEREFOR, AND USES THEREOF” (Medarex, Inc., priority 2009, published 2013) come the findings set out here.

The term pEC50 denotes the negative decadic logarithm of the EC50, by convention in mol/L.

Common to all, as to assay type: cell-based, human
The subject of one test is U-87 MG. Kind of test: 3H thymidine proliferation assay, U-87 MG. To be noted: 3H thymidine method, 72 h incubation, read-out: EC50, U-87 MG. Summed up:
(§1)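 Proliferation is read as incorporated ^3H-thymidine (1.0 μCi/well, final 24 h) after 72 h with 1:3 dilution series of free compound or conjugate; 1.0×10^4 cells/well. The EC50 is where proliferation falls by 50%.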

The next test deals with NCI-H460. Kind of test: 3H thymidine proliferation assay, NCI-H460. To be noted: 3H thymidine method, 72 h incubation, read-out: EC50, NCI-H460. In short, it runs like this: as §1
Test [1] deals with A549. As to the kind of experiment: 3H thymidine proliferation assay, A549. As to conditions: 3H thymidine method, 72 h incubation, read-out: EC50, A549. In short, it runs like this:
as §1

For a further test, the system named is BT474. Kind of test: 3H thymidine proliferation assay, BT474. To be noted: 3H thymidine method, 72 h incubation, read-out: EC50, BT474. Summed up:
as §1

For test [2], the system named is SKOV3. As to the kind of experiment: 3H thymidine proliferation assay, SKOV3. To be noted: 3H thymidine method, 72 h incubation, read-out: EC50, SKOV3. Summed up: as §1
Another test concerns ZR-75. As to the kind of experiment: 3H thymidine proliferation assay, ZR-75. As to conditions: 3H thymidine method, 72 h incubation, read-out: EC50, ZR-75. Summed up: as §1
A further test has as its system OVCAR8. Kind of test: 3H thymidine proliferation assay, OVCAR8. To be noted: 3H thymidine method, 72 h incubation, read-out: EC50, OVCAR8. Summed up: as §1
The subject of another test is Hep3B. Kind of test: ATP luminescence proliferation assay, Hep3B. As to conditions: ATP luminescence, 48 h incubation, read-out: EC50 Hep3B (48 h). How it is done:
(§2) This example generally describes the procedures used to assay the antiproliferative activity of compounds of this invention or their conjugates. Human tumor cell lines were obtained from the American Type Culture Collection (ATCC), P.O. Box 1549, Manassas, Va. 20108, USA, and cultured according to instruction from the ATCC. Cells were seeded at 1.0×10^3 or 1.0×10^4 cells/well in 96-well plates for 3 h for ATP assays or ^3H thymidine assays, respectively. 1:3 serial dilutions of free (unconjugated) compounds or their conjugates were added to the wells. Plates were allowed to incubate for 24 to 72 h. The ^3H thymidine plates were pulsed with 1.0 μCi of ^3H-thymidine per well for the last 24 hours of the total incubation period, harvested, and read on a Top Count Scintillation Counter (Packard Instruments, Meriden, Conn.). ATP levels in the ATP plates were measured using the […]-GLO® Luminescent Cell Viability kit following the manufacturer's manual and read on a GLOMAX® 20/20 luminometer (both from Promega, Madison, Wis., USA). The EC50 values—the concentration at which an agent inhibits or reduces cell proliferation by 50% —were determined using PRISM™ software, version 4.0 (GraphPad Software, La Jolla, Calif., USA).
(§3) Using the ^3H thymidine or the ATP luminescence assay, or both, the activities of compounds of this invention were assayed against the following cancer cell lines: HCT-15 (colorectal cancer, multi-drug resistant (MDR)); Hep3B (liver cancer); LNCaP (prostate cancer, androgen receptor positive (AR^+)); MDA-MB-231 (breast cancer, estrogen receptor, progesterone receptor, and Her2 negative (triple negative)); A2058 (melanoma); U-87 MG (glioblastoma); NCI-H460 (NSCLC); A549 (NSCLC); HPAC (pancreatic cancer, primary); PC3 (prostate cancer, AR); BT474 (breast cancer, Her2 highly positive (Her2hi)); SKOV3 (ovarian cancer, Her2hi); 786-O (renal cancer); UO-31 (renal cancer, MDR); NCI-H740 (SCLC); DMS53 (SCLC); SK-BR3 (breast cancer, Her2hi); ZR-75 (breast cancer, estrogen receptor positive); OVCAR3 (ovarian cancer); HL-60 (APL); OVCAR8/Adr (ovarian cancer, MDR); CEM-Cl (ALL); Nomo-1 (AML); RPMI-8226 (MM)); Raji (lymphoma); SW-480 (colorectal cancer, metastatic); SW-620 (colorectal cancer); and H226 (lung cancer). (Not all compounds were assayed against all cell lines.)
(§4) Table 3 provides the data for the ATP luminescence proliferation assays, with an incubation period of 48, 72, or 96 h, as noted.

The test system of the next test is LNCaP. Kind of test: ATP luminescence proliferation assay, LNCaP. As to conditions: ATP luminescence, 72 h incubation, read-out: EC50 LNCaP (72 h). The method, then: as §2, §3, §4
Test [3] deals with A549. As to the kind of experiment: ATP luminescence proliferation assay, A549. To be noted: ATP luminescence, A549, 48 h incubation, read-out: EC50 A549 (48 h). The method, then:
as §2, §3, §4

The subject of a further test is PC3. As to the kind of experiment: ATP luminescence proliferation assay, PC3. As to conditions: ATP luminescence, PC3, 48 h incubation, read-out: EC50 PC3 (48 h). How it is done: as §2, §3, §4
Test [4] concerns SKOV3. Kind of test: ATP luminescence proliferation assay, SKOV3. To be noted: ATP luminescence, SKOV3, 48 h incubation, read-out: EC50 SKOV3 (48 h). The method, then:
as §2, §3, §4

In the next test the test system is NCI-H740. As to the kind of experiment: ATP luminescence proliferation assay, NCI-H740. As to conditions: H740, 72 h incubation. The method, then: as §2, with “Calif., USA). […]” for “Calif., USA).”
as §4

A further test has as its system Raji. As to the kind of experiment: ATP luminescence proliferation assay, Raji. To be noted: ATP luminescence, 72 h incubation, read-out: EC50 Raji (72 h). The method, then:
as §2, §3, §4

pEC50: −log10 of the molar value. Like-named read-outs stand apart in the source and are kept apart here.

Consider `Nc1ccc(C(=O)Nc2ccc3[nH]c(C(=O)N4C[C@@H](CCl)c5c4cc(O)c4ccccc54)cc3c2)cc1` [CBI, reference compound], for which the pEC50 in the test with U-87 MG (Homo sapiens, U-87 MG) was 9.85; in the test with NCI-H460 (Homo sapiens, NCI-H460), 10.38; in the test on A549 [1] (Homo sapiens, A549), 10.14; with BT474 (Homo sapiens, BT-474), 8.92; in the test on SKOV3 [2] (Homo sapiens, SK-OV-3), 10.33; with ZR-75 (Homo sapiens, ZR75), 8.82. In addition, the negative logarithm of the EC50 (pEC50) in the test on OVCAR8 (Homo sapiens, OVCAR-8) was 9.80; with Hep3B (Homo sapiens) it was 8.59; in the test on LNCaP (Homo sapiens), 8.48; in the test with A549 [3] (Homo sapiens), 8.52; in the test on PC3 (Homo sapiens, PC-3), 7.92; in the test with SKOV3 [4] (Homo sapiens, SK-OV-3), 8.52. Further, the pEC50 is 8.66 in the test on NCI-H740 (Homo sapiens) and 8.68 in the test on Raji (Homo sapiens).

As for `CC[C@H](C)[C@H](NC(=O)[C@H]1CCCCN1C)C(=O)N(COC(=O)CC(C)C)[C@H](C[C@@H](OC(C)=O)c1nc(C(=O)N[C@@H](Cc2ccccc2)C[C@H](C)C(=O)O)cs1)C(C)C` [Tub D, tubulysin D, reference compound], the pEC50 in the test with U-87 MG was 10.85; in the test on NCI-H460, 10.49; in the test on A549 [1] it was 10.85; with BT474, 9.29; in the test on SKOV3 [2], 10.41; in the test with ZR-75, 8.77. Moreover, the pEC50 with OVCAR8 is 9.77; in the test on Hep3B, 11.92; with LNCaP it was 10.03; in the test with A549 [3], 10.70; in the test on PC3, 10.41; in the test on SKOV3 [4], 10.54. For the same molecule, the figures for the pEC50 with NCI-H740 and in the test on Raji were 10.66 and 11.32, respectively.
